Measured values published in patent publication US20230391768A2, “IMIDAZOPYRIDINE DERIVATIVES AND AZA-IMIDAZOPYRIDINE DERIVATIVES AS JANUS KINASE 2 INHIBITORS AND USES THEREOF” (Dana-Farber Cancer Institute, Inc., priority 2018, published 2023).

How the values were obtained:
Experiment in all cases: KINOMEscan
Format in all cases: binding
Conditions in all cases: read-out: percent of control
MAP3K4 = MAP3K4 (Homo sapiens (Human), UniProt Q9Y6R4)
Description: (§1) In vitro profiling of Compound I-2 (1 μM) was performed using the DiscoveRx KINOMEscan® platform.

AURKB = AURKB (Homo sapiens (Human), UniProt Q96GD4)
Description: as §1

ALK = ALK (Homo sapiens (Human), UniProt Q9UM73)
Description: as §1

PAK4 = PAK4 (Homo sapiens (Human), UniProt O96013)
Description: as §1

FAK = FAK (Homo sapiens (Human), UniProt Q05397)
FAK, sequence (Q05397 whole entry): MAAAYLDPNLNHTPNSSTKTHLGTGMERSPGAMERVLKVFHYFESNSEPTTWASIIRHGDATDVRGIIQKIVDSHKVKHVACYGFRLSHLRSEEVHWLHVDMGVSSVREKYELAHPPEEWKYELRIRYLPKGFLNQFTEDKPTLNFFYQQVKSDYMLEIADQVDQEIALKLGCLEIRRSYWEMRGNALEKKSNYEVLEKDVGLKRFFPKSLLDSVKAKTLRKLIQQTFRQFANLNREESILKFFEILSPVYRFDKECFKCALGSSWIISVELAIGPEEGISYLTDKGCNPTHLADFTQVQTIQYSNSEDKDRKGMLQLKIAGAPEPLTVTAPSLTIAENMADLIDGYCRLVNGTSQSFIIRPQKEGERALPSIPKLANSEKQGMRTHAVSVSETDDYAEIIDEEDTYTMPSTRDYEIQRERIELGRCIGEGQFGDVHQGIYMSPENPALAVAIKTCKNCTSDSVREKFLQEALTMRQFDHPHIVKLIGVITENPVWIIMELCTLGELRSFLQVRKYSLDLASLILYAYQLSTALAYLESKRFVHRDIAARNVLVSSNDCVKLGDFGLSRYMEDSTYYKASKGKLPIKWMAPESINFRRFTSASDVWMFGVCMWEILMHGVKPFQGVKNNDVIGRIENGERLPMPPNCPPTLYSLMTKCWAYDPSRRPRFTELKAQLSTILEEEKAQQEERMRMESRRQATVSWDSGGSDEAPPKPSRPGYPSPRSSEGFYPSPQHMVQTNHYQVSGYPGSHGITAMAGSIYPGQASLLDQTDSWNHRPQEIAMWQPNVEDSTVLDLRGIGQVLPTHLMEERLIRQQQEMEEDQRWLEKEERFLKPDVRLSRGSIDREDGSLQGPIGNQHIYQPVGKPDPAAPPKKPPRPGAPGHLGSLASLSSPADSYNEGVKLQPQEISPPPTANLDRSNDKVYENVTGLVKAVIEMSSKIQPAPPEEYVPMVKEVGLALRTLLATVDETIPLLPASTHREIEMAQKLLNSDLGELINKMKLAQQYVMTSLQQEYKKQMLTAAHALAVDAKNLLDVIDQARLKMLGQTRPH
Description: as §1

MAP3K3 = MAP3K3 (Homo sapiens (Human), UniProt Q99759)
Description: as §1

EGFR = EGFR (Homo sapiens (Human), UniProt P00533)
Description: as §1

MYLK2 = MYLK2 (Homo sapiens (Human), UniProt Q9H1R3)
Description: as §1

ULK = ULK (Homo sapiens (Human), UniProt O75385)
Description: as §1

DYRK1B = DYRK1B (Homo sapiens (Human), UniProt Q9Y463)
DYRK1B, sequence (Q9Y463 whole entry): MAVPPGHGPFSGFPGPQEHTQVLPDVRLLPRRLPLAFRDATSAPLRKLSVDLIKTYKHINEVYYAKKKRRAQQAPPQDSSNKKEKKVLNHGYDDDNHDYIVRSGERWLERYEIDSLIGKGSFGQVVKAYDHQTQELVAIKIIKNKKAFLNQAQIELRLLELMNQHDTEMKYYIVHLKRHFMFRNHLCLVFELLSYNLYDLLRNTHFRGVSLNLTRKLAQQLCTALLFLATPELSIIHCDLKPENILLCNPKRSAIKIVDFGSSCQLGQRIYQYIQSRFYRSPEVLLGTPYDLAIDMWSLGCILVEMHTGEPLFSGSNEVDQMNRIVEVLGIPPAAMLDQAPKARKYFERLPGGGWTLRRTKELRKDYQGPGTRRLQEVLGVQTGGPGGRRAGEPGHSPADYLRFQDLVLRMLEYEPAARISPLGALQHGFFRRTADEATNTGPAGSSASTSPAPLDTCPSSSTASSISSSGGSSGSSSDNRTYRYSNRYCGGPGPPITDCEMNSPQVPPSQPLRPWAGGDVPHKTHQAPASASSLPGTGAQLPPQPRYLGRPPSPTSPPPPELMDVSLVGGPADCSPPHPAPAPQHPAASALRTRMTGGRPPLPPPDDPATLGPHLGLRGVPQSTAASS
Description: as §1

MKNK2 = MKNK2 (Homo sapiens (Human), UniProt Q9HBH9)
Description: as §1

TLK2 = TLK2 (Homo sapiens (Human), UniProt Q86UE8)
Description: as §1

NDR2 = NDR2 (Homo sapiens (Human), UniProt Q9Y2H1)
Description: as §1

GSK3B = GSK3B (Homo sapiens (Human), UniProt P49841)
Description: as §1

CSNK1D = CSNK1D (Homo sapiens (Human), UniProt P48730)
CSNK1D, sequence (P48730 whole entry): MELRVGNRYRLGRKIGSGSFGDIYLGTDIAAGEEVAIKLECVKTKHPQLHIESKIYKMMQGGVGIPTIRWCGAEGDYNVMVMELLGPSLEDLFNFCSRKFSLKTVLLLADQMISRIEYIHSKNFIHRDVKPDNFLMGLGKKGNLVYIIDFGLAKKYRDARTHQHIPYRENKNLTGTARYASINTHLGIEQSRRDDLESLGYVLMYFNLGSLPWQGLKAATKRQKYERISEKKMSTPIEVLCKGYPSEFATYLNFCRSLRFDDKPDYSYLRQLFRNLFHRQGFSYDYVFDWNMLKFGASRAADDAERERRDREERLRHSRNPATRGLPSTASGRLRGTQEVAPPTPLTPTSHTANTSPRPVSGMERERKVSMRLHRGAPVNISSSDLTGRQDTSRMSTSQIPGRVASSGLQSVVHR
Description: as §1

MKK7 = MKK7 (Homo sapiens (Human), UniProt O14733)
Description: as §1

PIM2 = PIM2 (Homo sapiens (Human), UniProt Q9P1W9)
Description: as §1

AKT1 = AKT1 (Homo sapiens (Human), UniProt P31749)
Description: as §1

SRPK2 = SRPK2 (Homo sapiens (Human), UniProt P78362)
Description: as §1

[1] = target: JAK1(JH2domainpseudokinase) (Homo sapiens (Human), UniProt P23458)
JAK1(JH2domainpseudokinase), sequence (P23458 583-855 limits assumed): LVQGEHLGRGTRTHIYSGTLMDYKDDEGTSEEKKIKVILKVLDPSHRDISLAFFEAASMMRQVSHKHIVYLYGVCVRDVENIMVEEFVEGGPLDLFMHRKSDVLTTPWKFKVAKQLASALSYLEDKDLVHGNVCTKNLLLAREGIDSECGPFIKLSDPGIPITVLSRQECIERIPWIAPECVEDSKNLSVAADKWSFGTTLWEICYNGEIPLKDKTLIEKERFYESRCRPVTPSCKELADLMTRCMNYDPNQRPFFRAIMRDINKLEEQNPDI
Description: as §1

MST3 = MST3 (Homo sapiens (Human), UniProt Q9Y6E0)
Description: as §1

CSNK1G2 = CSNK1G2 (Homo sapiens (Human), UniProt P78368)
Description: as §1

[2] = target: RSK4 (Kin.Dom.1-N-terminal) (Homo sapiens (Human), UniProt Q9UK32)
RSK4 (Kin.Dom.1-N-terminal), sequence (Q9UK32 73-330): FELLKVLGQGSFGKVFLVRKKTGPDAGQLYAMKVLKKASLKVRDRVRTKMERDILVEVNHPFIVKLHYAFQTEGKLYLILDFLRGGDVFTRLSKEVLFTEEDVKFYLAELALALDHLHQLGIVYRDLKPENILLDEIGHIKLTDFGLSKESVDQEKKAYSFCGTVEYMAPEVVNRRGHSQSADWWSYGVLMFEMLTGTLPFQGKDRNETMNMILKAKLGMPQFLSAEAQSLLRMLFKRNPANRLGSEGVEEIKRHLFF
Description: as §1

p38-beta = p38-beta (Homo sapiens (Human), UniProt Q15759)
p38-beta, sequence (Q15759 whole entry): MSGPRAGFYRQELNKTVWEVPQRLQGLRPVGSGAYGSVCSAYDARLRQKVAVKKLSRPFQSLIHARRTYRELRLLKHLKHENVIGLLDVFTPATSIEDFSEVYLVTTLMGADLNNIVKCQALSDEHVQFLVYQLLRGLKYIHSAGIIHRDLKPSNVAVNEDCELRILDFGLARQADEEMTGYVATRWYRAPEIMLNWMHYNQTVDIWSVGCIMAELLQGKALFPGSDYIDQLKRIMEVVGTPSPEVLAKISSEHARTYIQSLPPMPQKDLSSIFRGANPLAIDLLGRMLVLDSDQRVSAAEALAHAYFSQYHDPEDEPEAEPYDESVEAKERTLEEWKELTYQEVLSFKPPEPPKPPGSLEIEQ
Description: as §1

DCAMKL1 = DCAMKL1 (Homo sapiens (Human), UniProt O15075)
Description: as §1

S6K1 = S6K1 (Homo sapiens (Human), UniProt P23443)
Description: as §1

[3] = target: ABL1(F317L)-nonphosphorylated (Homo sapiens (Human), UniProt P00519, F317L)
Description: as §1

MAP4K2 = MAP4K2 (Homo sapiens (Human), UniProt Q12851)
MAP4K2, sequence (Q12851 whole entry): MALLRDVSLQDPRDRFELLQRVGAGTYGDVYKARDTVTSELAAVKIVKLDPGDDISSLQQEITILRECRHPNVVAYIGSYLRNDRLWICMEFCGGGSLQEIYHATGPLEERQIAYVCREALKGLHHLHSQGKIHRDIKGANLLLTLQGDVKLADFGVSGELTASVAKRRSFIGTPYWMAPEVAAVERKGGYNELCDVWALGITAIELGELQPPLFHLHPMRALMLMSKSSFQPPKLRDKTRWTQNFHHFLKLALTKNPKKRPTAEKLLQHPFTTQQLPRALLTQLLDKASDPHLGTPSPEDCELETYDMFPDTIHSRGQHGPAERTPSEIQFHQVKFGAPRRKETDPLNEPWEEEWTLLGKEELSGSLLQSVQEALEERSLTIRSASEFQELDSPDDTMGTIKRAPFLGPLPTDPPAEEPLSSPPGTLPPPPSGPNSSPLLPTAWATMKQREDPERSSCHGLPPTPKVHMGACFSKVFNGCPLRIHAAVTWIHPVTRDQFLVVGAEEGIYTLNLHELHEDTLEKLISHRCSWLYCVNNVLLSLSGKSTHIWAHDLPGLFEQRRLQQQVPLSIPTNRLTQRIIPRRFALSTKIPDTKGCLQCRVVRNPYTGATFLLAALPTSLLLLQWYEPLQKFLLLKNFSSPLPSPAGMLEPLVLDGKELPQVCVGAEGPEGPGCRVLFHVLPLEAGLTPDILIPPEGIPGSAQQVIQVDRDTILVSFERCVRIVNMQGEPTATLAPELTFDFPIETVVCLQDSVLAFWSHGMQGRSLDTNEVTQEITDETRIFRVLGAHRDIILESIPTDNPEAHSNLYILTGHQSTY
Description: as §1

CDK4-cyclinD3 = CDK4-cyclinD3 (Homo sapiens (Human), UniProt P11802)
Description: as §1

PIM3 = PIM3 (Homo sapiens (Human), UniProt Q86V86)
Description: as §1

KIT-autoinhibited = KIT-autoinhibited (Homo sapiens (Human), UniProt P10721)
Description: as §1

NIK = NIK (Homo sapiens (Human), UniProt Q99558)
Description: as §1

EGFR(T790M) = EGFR(T790M) (Homo sapiens (Human), UniProt P00533, T790M)
Description: as §1

EGFR(L747-E749del,A750P) = EGFR(L747-E749del,A750P) (Homo sapiens (Human), UniProt P00533, A750P/DEL747-749)
Description: as §1

WNK2 = WNK2 (Homo sapiens (Human), UniProt Q9Y3S1)
Description: as §1

CSNK2A1 = CSNK2A1 (Homo sapiens (Human), UniProt P68400)
Description: as §1

EGFR(S752-I759del) = EGFR(S752-I759del) (Homo sapiens (Human), UniProt P00533, DEL752-759)
EGFR(S752-I759del), sequence (P00533 other isoform, or with tags, fused parts or gaps del S752-I759): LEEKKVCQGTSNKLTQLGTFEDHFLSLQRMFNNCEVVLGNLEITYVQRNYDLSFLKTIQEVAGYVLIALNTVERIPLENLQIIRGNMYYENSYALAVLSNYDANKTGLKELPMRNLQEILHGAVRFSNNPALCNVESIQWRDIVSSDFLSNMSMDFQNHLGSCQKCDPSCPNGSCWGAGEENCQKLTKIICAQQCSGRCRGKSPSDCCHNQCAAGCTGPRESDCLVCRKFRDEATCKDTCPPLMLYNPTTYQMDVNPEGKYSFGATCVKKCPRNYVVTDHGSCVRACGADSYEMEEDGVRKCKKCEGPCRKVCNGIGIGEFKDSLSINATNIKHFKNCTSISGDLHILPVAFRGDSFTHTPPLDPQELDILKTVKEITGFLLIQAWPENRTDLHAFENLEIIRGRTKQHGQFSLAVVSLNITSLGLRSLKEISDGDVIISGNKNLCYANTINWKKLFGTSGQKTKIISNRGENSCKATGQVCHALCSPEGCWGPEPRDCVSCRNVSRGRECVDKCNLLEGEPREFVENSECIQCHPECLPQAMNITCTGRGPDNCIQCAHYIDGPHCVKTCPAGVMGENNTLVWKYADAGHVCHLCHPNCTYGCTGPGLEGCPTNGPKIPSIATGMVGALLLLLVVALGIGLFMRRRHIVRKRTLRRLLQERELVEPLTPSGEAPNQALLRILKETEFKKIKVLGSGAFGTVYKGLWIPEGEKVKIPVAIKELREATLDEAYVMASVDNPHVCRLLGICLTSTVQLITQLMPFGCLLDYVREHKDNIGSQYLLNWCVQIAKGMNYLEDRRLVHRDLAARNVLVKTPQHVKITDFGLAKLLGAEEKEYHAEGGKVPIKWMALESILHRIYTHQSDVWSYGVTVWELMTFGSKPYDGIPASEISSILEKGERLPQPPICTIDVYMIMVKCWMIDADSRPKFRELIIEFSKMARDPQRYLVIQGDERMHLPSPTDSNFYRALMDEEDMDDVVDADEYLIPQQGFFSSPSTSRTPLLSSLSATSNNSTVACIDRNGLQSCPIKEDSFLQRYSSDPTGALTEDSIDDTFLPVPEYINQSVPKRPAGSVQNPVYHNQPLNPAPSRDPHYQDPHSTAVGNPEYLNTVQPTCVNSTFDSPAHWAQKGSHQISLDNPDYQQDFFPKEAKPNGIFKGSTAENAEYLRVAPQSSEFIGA
Description: as §1

ERBB2 = ERBB2 (Homo sapiens (Human), UniProt P04626)
Description: as §1

Row | Compound | remaining binding at 1 µM (MAP3K4) | remaining binding at 1 µM (AURKB) | remaining binding at 1 µM (ALK) | remaining binding at 1 µM (PAK4) | remaining binding at 1 µM (FAK) | remaining binding at 1 µM (MAP3K3) | remaining binding at 1 µM (EGFR) | remaining binding at 1 µM (MYLK2) | remaining binding at 1 µM (ULK) | remaining binding at 1 µM (DYRK1B) | remaining binding at 1 µM (MKNK2) | remaining binding at 1 µM (TLK2) | remaining binding at 1 µM (NDR2) | remaining binding at 1 µM (GSK3B) | remaining binding at 1 µM (CSNK1D) | remaining binding at 1 µM (MKK7) | remaining binding at 1 µM (PIM2) | remaining binding at 1 µM (AKT1) | remaining binding at 1 µM (SRPK2) | remaining binding at 1 µM [1] | also measured
1 | CCN1CCN(Cc2cc(NC(=O)c3ccc(C)c(-c4ccc5nc(NC(=O)C6CC6)cn5n4)c3)cc(C(F)(F)F)c2)CC1 [Compound I-2, 3-(2-(cyclopropanecarboxamido)imidazo[1,2-b]pyridazin-6-yl)-N-(3-((4-ethylpiperazin-1-yl)methyl)-5-(trifluoromethyl)phenyl)-4-methylbenzamide] | 89% | 97% | 8.7% | 96% | 1.9% | 48% | 31% | 92% | 89% | 62% | 87% | 100% | 98% | 93% | 100% | 84% | 96% | 90% | 73% | 100% | remaining binding at 1 µM (MST3): 85%; remaining binding at 1 µM (CSNK1G2): 92%; remaining binding at 1 µM [2]: 93%; remaining binding at 1 µM (p38-beta): 60%; remaining binding at 1 µM (DCAMKL1): 90%; remaining binding at 1 µM (S6K1): 52%; remaining binding at 1 µM [3]: 0%; remaining binding at 1 µM (MAP4K2): 0.05%; remaining binding at 1 µM (CDK4-cyclinD3): 41%; remaining binding at 1 µM (PIM3): 90%; remaining binding at 1 µM (KIT-autoinhibited): 79%; remaining binding at 1 µM (NIK): 100%; remaining binding at 1 µM (EGFR(T790M)): 15%; remaining binding at 1 µM (EGFR(L747-E749del,A750P)): 14%; remaining binding at 1 µM (WNK2): 72%; remaining binding at 1 µM (CSNK2A1): 98%; remaining binding at 1 µM (EGFR(S752-I759del)): 80%; remaining binding at 1 µM (ERBB2): 82%
2 | CCN1CCN(Cc2cc(NC(=O)c3ccc(C)c(-c4ccc5nc(NC(=O)C6CC6)cn5c4)c3)cc(C(F)(F)F)c2)CC1 [Compound I-6, 3-(2-(cyclopropanecarboxamido)imidazo[1,2-a]pyridin-6-yl)-N-(3-((4-ethylpiperazin-1-yl)methyl)-5-(trifluoromethyl)phenyl)-4-methylbenzamide] | 81% | 80% | 16% | 96% | 7.9% | 56% | 24% | 83% | 100% | 87% | 82% | 98% | 59% | 100% | 100% | 100% | 97% | 90% | 100% | 72% | remaining binding at 1 µM (MST3): 92%; remaining binding at 1 µM (CSNK1G2): 100%; remaining binding at 1 µM [2]: 87%; remaining binding at 1 µM (p38-beta): 62%; remaining binding at 1 µM (DCAMKL1): 84%; remaining binding at 1 µM (S6K1): 49%; remaining binding at 1 µM [3]: 0%; remaining binding at 1 µM (MAP4K2): 0.2%; remaining binding at 1 µM (CDK4-cyclinD3): 64%; remaining binding at 1 µM (PIM3): 89%; remaining binding at 1 µM (KIT-autoinhibited): 85%; remaining binding at 1 µM (NIK): 72%; remaining binding at 1 µM (EGFR(T790M)): 15%; remaining binding at 1 µM (EGFR(L747-E749del,A750P)): 18%; remaining binding at 1 µM (WNK2): 57%; remaining binding at 1 µM (CSNK2A1): 100%; remaining binding at 1 µM (EGFR(S752-I759del)): 65%; remaining binding at 1 µM (ERBB2): 71%
